Test results taken from patent publication US8481556B2, “Piperidinone carboxamide azaindane CGRP receptor antagonists” (Merck, Sharp & Dohms, Corp., priority 2010, dated 2013).
Where a name gives a salt, the structure may show the parent alone. Values belong to the molecule of their own block, whether it stands above or below them. Ends that are not written are not given here.

What was measured:
migraine = conditions: cited from earlier work
facial blood flow [1] = conditions: marmoset, electrical stimulation of the trigeminal ganglion (Doods et al. 2000); cited from earlier work
[2] = target: T1, recombinant human CL receptor/RAMP1 (Homo sapiens, UniProt O60894+Q16602); assay: Recombinant receptor binding assay (125I-hCGRP); conditions: exemplary compounds of the invention
T1 construct: expressed in transfected cells; membranes used
T1 sequence (Q16602 23-461): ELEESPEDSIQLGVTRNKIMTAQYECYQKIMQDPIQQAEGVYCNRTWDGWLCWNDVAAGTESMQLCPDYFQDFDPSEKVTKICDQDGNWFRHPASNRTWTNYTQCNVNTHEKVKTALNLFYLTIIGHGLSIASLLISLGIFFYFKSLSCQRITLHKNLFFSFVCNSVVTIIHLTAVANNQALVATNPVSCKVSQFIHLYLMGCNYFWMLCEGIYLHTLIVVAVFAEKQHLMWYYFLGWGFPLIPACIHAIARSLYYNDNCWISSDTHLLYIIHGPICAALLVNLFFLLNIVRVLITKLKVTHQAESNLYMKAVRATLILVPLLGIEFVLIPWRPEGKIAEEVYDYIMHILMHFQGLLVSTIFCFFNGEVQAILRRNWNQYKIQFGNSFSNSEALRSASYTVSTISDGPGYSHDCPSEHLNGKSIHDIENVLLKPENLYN
T1 sequence (O60894 27-148): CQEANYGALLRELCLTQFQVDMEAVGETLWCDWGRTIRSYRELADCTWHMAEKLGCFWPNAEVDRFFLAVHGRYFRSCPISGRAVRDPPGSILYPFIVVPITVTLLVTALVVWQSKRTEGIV
Protocol: Human CL receptor (Genbank accession number L76380) was subcloned into the expression vector pIREShyg2 (BD Biosciences Clontech) as a 5′NheI and 3′ PmeI fragment. Human RAMP1 (Genbank accession number AJ001014) was subcloned into the expression vector pIRESpuro2 (BD Biosciences Clontech) as a 5′NheI and 3′NotI fragment. […] Cells were subcultured by treatment with 0.25% trypsin with 0.1% EDTA in HBSS. Stable cell line generation was accomplished by co-transfecting 10 μg of DNA with 30 μg Lipofectamine 2000 (Invitrogen) in 75 cm^2 flasks. CL receptor and RAMP1 expression constructs were co-transfected in equal amounts. Twenty-four hours after transfection the cells were diluted and selective medium (growth medium+300 μg/mL hygromycin and 1 μg/mL puromycin) was added the following day. A clonal cell line was generated by single cell deposition utilizing a FACS Vantage SE (Becton Dickinson). Growth medium was adjusted to 150 μg/mL hygromycin and 0.5 μg/mL puromycin for cell propagation.
The cell suspension was disrupted with a laboratory homogenizer and centrifuged at 48,000 g to isolate membranes. The pellets were resuspended in harvest buffer plus 250 mM sucrose and stored at −70° C. […] Scintillation fluid was added and the plates were counted on a Topcount (Packard).

middle meningeal artery = conditions: rats, electrical stimulation of the dura mater, prior administration (Williamson et al. 1997); cited from earlier work
facial blood flow [3] = conditions: rat, trigeminal ganglion stimulation (Escott et al. 1995); cited from earlier work

Molecule: NCCCC[C@H](NC(=O)[C@@H](Cc1cc(Br)c(O)c(Br)c1)NC(=O)N1CCC(N2Cc3ccccc3NC2=O)CC1)C(=O)N1CCN(c2ccncc2)CC1 [BIBN4096BS]
- effectiveness in treating acute attacks of migraine (migraine; clinical trials (Olesen et al. 2004)): effective in treating acute attacks of migraine
- effect on increase in facial blood flow (facial blood flow [1]): could be blocked

- Ki [2]: 0.011 nM
Molecule: C[C@@H]1[C@H](c2c(F)ccc(F)c2F)C[C@H](NC(=O)c2cnc3c(c2)C[C@@]2(C3)C(=O)Nc3ncc(F)cc32)C(=O)N1CC(F)(F)F [Example 33, (6S)-5′-Fluoro-N-[(3S,5S,6R)-6-methyl-2-oxo-1-(2,2,2-trifluoroethyl)-5-(2,3,6-trifluorophenyl)piperidin-3-yl]-2′-oxo-1′,2′,5,7-tetrahydrospiro[cyclopenta[b]pyridine-6,3′-pyrrolo[2,3-b]pyridine]-3-carboxamide hydrochloride]

- Ki [2]: 0.066 nM
Molecule: C[C@@H]1[C@H](c2cc(F)cc(F)c2F)C[C@H](NC(=O)c2cnc3c(c2)C[C@@]2(C3)C(=O)Nc3ncc(C#N)cc32)C(=O)N1CC(F)(F)F [Example 34]

Molecule: O=C(N[C@@H]1CC[C@@H](c2cccc(F)c2F)CN(CC(F)(F)F)C1=O)N1CCC(n2c(=O)[nH]c3ncccc32)CC1 [telcagepant]
- antimigraine effectiveness (migraine; phase III clinical trials (Ho et al. 2008; Connor et al. 2009)): shown antimigraine effectiveness

Molecule: CGRP(8-37) (VTHRLAGLLSRSGGVVKNNFVPTNVGSKAF-NH2; ends and bridges not checked; UniProt P06881 90-119, looked up, fragment) [a peptide CGRP receptor antagonist]
- effect on increase of middle meningeal artery diameter (middle meningeal artery): blocked
- effect on increased facial blood flow (facial blood flow [3]): inhibited
